Assay type in all cases: biochemical
Experiment [1] concerns the target T1, VEGFR2 (Homo sapiens, UniProt P35968).
T1 construct: purchased Carna 08-191
Briefly: Assay I: kinase inhibition (HTRF KinEASE-TK), VEGFR2. The following applies: Table 1; ATP working concentration 5 μM, substrate TK 1 μM. On the technique in general: In TR-FRET formats the signal depends on donor and acceptor labels being close together.

Experiment [2] has as its target T2, FGFR1 V561M (Homo sapiens, UniProt P11362, V561M).
T2 construct: purchased Signalchem F04-13G
Briefly: Assay I: inhibitory activity against FGFR mutants (HTRF KinEASE-TK). As to conditions: Table 1; ATP working concentration 5 μM, substrate TK 1 μM. How it is done: (§1) Assay I: Determination of Inhibitory Activity Against FGFR Mutants
(§2) 1×Kinase reaction buffer was formulated with 1×volume of 5× kinase reaction buffer and 4×volume of water; 5 mM MgCl2; and 1 mM DTT.
(§3) 2.3 Screening of Compounds: • 1. […] Adding 1 μl of the compound diluted in buffer to each well, sealing the plate with a sealing membrane and centrifuging the plate at 1000 g for 30 seconds and leaving it at room temperature for 10 minutes. • 6. Formulating 2.5×TK-substrate-biotin and ATP mixture with 1× enzyme reaction buffer and adding 2 μl of K-substrate-biotin/ATP mixture to the reaction plate. • 7. Sealing the plate with a sealing membrane and centrifuging the plate at 1000 g for 30 seconds and allowing it to react at room temperature for 50 minutes. • 8. […] 3. Data Analysis
(§4) 3.3 Calculation of IC50 and plotting of inhibition curves for the compounds.
(§5) The IC50 (half inhibition concentration) of a compound was obtained using the following non-linear fitting equation, wherein data analysis was performed using Graphpad 6.0 software.
(§6) Data were exported from Envision and analyzed manually. The ratios were converted to inhibition rates and IC50 was calculated by Prism GraphPad 6.0 from the inhibition rates. IC50 was calculated again by the ratios to verify accuracy of the results.

Experiment [3] has as its target T3, FGFR2 V564F (Homo sapiens, UniProt P21802, V564F).
T3 construct: purchased Signalchem F05-12FG
The description is as above. As to conditions: Table 1; ATP working concentration 10 μM, substrate TK 1 μM. How it is done:
as §1, §2, §3, §4, §5, §6

In experiment [4] the target is T4, FGFR3 V555M (Homo sapiens, UniProt P22607, V555M).
T4 construct: purchased Signalchem F06-12GG
T4 sequence (P22607 23-806 V555M): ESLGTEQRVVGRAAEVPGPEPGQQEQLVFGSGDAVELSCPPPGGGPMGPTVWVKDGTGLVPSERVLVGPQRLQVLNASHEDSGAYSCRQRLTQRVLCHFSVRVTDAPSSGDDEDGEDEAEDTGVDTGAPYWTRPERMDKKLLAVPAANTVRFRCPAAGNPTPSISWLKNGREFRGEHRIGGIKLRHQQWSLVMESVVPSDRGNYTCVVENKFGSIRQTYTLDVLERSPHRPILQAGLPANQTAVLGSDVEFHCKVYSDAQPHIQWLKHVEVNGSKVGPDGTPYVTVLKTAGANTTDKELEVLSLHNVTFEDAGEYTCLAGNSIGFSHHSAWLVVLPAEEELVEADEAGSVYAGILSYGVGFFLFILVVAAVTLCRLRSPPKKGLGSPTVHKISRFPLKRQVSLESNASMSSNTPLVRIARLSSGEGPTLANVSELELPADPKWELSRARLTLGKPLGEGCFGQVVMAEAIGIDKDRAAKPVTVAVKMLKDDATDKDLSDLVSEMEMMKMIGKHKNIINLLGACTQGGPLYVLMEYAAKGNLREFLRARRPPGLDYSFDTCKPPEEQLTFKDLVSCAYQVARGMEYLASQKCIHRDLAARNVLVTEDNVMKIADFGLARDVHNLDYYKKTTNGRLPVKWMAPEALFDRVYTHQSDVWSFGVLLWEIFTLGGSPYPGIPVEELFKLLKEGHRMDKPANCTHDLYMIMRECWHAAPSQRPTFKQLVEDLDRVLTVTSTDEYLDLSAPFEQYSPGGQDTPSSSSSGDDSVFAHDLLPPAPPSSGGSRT
The description is as above. As to conditions: Table 1; ATP working concentration 20 μM, substrate TK 1 μM. How it is done:
as §1, §2
(§7) 2.3 Screening of Compounds: • 1. Diluting a compound 4-fold in a dilution plate with DMSO, with a starting compound concentration of 2 mM (4 mM for Nentedanib). • 2. Diluting the compound 40-fold into 1× kinase reaction buffer and shaking it on a shaker for 20 minutes. • 3. […] Adding 1 μl of the compound diluted in buffer to each well, sealing the plate with a sealing membrane and centrifuging the plate at 1000 g for 30 seconds and leaving it at room temperature for 10 minutes. • 6. Formulating 2.5×TK-substrate-biotin and ATP mixture with 1× enzyme reaction buffer and adding 2 μl of K-substrate-biotin/ATP mixture to the reaction plate. • 7. Sealing the plate with a sealing membrane and centrifuging the plate at 1000 g for 30 seconds and allowing it to react at room temperature for 50 minutes. • 8. Formulating 4×Sa-XL 665 (250 nM) with HTRF assay buffer. • 9. Adding 5 μl Sa-XL 665 and 5 μl TK-Antibody-Cryptate to each well, centrifuging it at 1000 g for 30 seconds, and allowing it to react for 1 hour at room temperature. • 10. Reading fluorescence signals at 615 nm (Cryptate) and 665 nm (XL665) with Biotek. 3. Data Analysis
(§8) 3.1 Calculation of the ratio for each well: the ratio was calculated as 665/615 nm.
as §4, §5, §6

The target in experiment [5] is T1, VEGFR2. Briefly: Assay III: kinase inhibition (method of Assay I, different operator), VEGFR2. The following applies: Table 3; same method as Assay I, different experimental operator. How it is done: as §2
2.3 Screening of Compounds: • 1. Diluting a compound 4-fold in a dilution plate with DMSO, with a starting compound concentration of 2 mM (4 mM for Nentedanib). • 2. Diluting the compound 40-fold into 1× kinase reaction buffer and shaking it on a shaker for 20 minutes. • 3. Formulating 2×FGFR1 V561M/FGFR2 V564F/FGFR3 K650E/VEGFR2 with 1× of enzyme reaction buffer. • 4. Adding 2 μl FGFR1 V561M/FGFR2 V564F/FGFR3 K650E/VEGFR2 kinase (formulated in step 3) to each well of the reaction plate. • 5. Adding 1 μl of the compound diluted in buffer to each well, sealing the plate with a sealing membrane and centrifuging the plate at 1000 g for 30 seconds and leaving it at room temperature for 10 minutes. • 6. Formulating 2.5×TK-substrate-biotin and ATP mixture with 1× enzyme reaction buffer and adding 2 μl of K-substrate-biotin/ATP mixture to the reaction plate. • 7. Sealing the plate with a sealing membrane and centrifuging the plate at 1000 g for 30 seconds and allowing it to react at room temperature for 50 minutes. • 8. Formulating 4×Sa-XL 665 (250 nM) with HTRF assay buffer. • 9. Adding 5 μl Sa-XL 665 and 5 μl TK-Antibody-Cryptate to each well, centrifuging it at 1000 g for 30 seconds, and allowing it to react for 1 hour at room temperature. • 10. Reading fluorescence signals at 615 nm (Cryptate) and 665 nm (XL665) with Biotek. 3. Data Analysis
as §8, §4
The IC50 (half inhibition concentration) of a compound was obtained using the following non-linear fitting equation, wherein data analysis was performed using Graphpad 6.0 software. Y=Bottom+(Top−Bottom)/(1+10^((Log IC50−X)*Hill Slope)) • X: log value of compound concentration; and Y: inhibition rate (% inh) 3.4 Validation of Results
as §6
(§9) Assay III: Determination of Inhibitory Activity Against FGFR Mutants

The target in experiment [6] is T2, FGFR1 V561M. Briefly: Assay III: inhibitory activity against FGFR mutants (method of Assay I, different operator). As to conditions: Table 3; same method as Assay I, different experimental operator. The procedure: as §2, §7, §8, §4, §5, §6, §9
For experiment [7], the target named is T3, FGFR2 V564F. Described as above. As to conditions: Table 3; same method as Assay I, different experimental operator. The procedure:
as §2, §7, §8, §4, §5, §6, §9

Experiment [8] deals with T4, FGFR3 V555M. The description is as above. As to conditions: Table 3; same method as Assay I, different experimental operator. The procedure: as §2, §7, §8, §4, §5, §6, §9

T3 sequence (P21802 22-821 V564F): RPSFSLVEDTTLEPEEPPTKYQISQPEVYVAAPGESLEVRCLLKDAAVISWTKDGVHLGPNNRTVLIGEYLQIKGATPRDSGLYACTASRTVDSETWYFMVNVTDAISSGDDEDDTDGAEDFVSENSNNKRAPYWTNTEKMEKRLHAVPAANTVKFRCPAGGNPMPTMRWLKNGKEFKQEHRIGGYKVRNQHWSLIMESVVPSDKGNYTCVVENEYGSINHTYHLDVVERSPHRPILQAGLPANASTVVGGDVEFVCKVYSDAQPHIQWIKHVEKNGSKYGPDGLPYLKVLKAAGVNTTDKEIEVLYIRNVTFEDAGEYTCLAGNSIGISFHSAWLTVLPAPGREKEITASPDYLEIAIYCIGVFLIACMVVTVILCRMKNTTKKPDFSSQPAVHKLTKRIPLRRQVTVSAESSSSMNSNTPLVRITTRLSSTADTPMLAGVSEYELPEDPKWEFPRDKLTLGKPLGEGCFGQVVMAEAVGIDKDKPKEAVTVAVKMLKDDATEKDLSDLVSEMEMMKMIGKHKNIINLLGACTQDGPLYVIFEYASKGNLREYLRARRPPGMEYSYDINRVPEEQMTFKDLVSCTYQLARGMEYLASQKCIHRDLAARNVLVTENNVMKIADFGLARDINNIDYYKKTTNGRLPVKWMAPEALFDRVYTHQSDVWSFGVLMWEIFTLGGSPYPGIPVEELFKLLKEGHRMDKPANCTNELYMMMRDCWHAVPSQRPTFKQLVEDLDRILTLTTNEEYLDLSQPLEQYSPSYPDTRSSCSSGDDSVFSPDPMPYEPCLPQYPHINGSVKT
T2 sequence (P11362 22-822 V561M): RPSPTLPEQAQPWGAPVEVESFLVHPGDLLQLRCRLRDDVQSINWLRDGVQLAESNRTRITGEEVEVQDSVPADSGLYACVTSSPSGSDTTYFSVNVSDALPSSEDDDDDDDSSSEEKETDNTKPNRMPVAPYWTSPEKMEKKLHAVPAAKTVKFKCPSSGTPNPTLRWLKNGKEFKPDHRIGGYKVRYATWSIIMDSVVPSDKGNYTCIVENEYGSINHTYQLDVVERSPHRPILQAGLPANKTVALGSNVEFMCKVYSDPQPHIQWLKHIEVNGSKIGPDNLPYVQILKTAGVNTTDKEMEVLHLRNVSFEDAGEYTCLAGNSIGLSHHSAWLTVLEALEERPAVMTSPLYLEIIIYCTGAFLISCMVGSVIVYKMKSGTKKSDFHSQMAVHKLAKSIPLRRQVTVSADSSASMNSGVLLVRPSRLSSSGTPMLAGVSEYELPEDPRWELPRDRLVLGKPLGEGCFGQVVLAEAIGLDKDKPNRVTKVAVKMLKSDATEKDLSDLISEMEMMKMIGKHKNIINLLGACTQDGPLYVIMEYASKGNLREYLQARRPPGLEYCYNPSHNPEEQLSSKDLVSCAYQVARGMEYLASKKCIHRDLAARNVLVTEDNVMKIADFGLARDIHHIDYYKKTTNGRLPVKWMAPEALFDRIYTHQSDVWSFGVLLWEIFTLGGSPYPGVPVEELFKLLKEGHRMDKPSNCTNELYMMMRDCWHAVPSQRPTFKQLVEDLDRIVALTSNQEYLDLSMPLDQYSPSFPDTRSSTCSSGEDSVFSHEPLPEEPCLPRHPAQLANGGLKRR
T1 sequence (P35968 20-1356): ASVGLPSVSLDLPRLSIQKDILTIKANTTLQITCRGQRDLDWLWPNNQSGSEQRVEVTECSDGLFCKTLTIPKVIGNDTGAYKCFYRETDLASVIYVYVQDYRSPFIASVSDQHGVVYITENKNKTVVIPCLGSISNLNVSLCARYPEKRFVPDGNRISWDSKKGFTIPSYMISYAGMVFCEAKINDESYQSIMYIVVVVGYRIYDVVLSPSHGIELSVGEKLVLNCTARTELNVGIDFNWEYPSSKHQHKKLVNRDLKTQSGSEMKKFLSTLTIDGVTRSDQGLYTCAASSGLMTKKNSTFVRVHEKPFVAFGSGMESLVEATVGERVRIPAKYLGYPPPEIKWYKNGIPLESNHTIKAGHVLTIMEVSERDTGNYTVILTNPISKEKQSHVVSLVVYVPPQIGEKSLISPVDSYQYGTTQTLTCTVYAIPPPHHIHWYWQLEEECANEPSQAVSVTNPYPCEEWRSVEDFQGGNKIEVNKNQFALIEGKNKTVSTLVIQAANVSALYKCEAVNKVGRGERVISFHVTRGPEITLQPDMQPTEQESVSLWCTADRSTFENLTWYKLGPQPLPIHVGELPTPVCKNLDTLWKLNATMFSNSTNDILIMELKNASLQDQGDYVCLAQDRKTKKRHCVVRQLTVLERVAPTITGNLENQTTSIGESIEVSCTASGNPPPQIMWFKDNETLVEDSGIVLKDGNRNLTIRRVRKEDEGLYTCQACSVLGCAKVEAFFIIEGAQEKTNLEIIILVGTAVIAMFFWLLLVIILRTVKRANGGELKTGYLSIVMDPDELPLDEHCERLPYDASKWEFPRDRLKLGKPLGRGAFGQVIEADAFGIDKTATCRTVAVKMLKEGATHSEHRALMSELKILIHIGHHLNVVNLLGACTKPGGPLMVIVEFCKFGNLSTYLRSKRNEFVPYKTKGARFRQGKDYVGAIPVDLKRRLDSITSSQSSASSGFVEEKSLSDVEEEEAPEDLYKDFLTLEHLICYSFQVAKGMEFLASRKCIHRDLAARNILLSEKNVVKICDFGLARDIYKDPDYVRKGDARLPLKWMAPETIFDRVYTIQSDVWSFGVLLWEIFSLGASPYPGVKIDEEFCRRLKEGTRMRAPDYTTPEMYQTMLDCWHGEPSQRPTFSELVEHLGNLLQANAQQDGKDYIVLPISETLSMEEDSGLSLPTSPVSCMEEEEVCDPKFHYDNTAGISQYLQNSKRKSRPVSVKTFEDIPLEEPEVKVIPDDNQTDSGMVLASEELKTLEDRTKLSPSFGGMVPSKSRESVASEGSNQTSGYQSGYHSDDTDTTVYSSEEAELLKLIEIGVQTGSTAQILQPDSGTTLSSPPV

As for `CC(Oc1ccc2[nH]nc(C(=O)Nc3cnn(CCC#N)c3)c2c1)c1c(Cl)cncc1Cl` (stereo not shown) [Compound 11, N-(1-(2-cyanoethyl)-1H-pyrazol-4-yl)-5-(1-(3,5-dichloropyridin-4-yl)ethoxy)-1H-indazole-3-carboxamide], the IC50 (commonly the point on the concentration scale where inhibition reaches its midpoint) amounted to 230 nM in experiment [1], 5.6 nM in experiment [2], 1.1 nM in experiment [3] and 1.7 nM in experiment [4].

In the case of `C[C@@H](Oc1ccc2[nH]nc(C(=O)Nc3cnn(CC4CCCN4C)c3)c2c1)c1c(Cl)cncc1Cl` (stereo partly shown) [Compound 42], the IC50 in experiment [5] was 169 nM; in experiment [6] it was 1.1 nM; in experiment [7] it was 0.43 nM; in experiment [8] it was 0.44 nM.

In the case of `C[C@@H](O)Cn1cc(NC(=O)c2n[nH]c3ccc(O[C@H](C)c4c(Cl)cncc4Cl)cc23)cn1` [Compound 33, 5-((R)-1-(3,5-dichloropyridin-4-yl)ethoxy)-N-(1-((R)-2-hydroxypropyl)-1H-pyrazol-4-yl)-1H-indazole-3-carboxamide], the IC50 in experiment [5] was 99 nM; in experiment [6], 1 nM; in experiment [7], 0.33 nM; in experiment [8], 0.39 nM.

For `C[C@@H](Oc1ccc2[nH]nc(C(=O)Nc3cnn(C4CCN(C)C4)c3)c2c1)c1c(Cl)cncc1Cl` (stereo partly drawn) [Compound 43, 5-((R)-1-(3,5-dichloropyridin-4-yl)ethoxy)-N-(1-(1-methylpyrrolidin-3-yl)-1H-pyrazol-4-yl)-1H-indazole-3-carboxamide], the IC50 in experiment [5] stood at 62 nM; in experiment [6], 0.38 nM; in experiment [7], 0.15 nM; in experiment [8], 0.14 nM.

Regarding `CC(Oc1ccc2[nH]nc(C(=O)Nc3ccc(N4CC[C@@H](O)C4)cc3)c2c1)c1c(Cl)cncc1Cl` (stereo partly drawn) [Compound 3, 5-(1-(3,5-dichloropyridin-4-yl)ethoxy)-N-(4-((R)-3-hydroxypyrrolidin-1-yl)phenyl)-1H-indazole-3-carboxamide], the IC50 in experiment [1] is greater than 10000 nM; in experiment [2] it was 69.7 nM; in experiment [3] it was 22.1 nM.

For the molecule `CCN1CC(Cn2cc(NC(=O)c3n[nH]c4ccc(O[C@H](C)c5c(Cl)cncc5Cl)cc34)cn2)C1` [Compound 39, (R)-5-(1-(3,5-dichloropyridin-4-yl)ethoxy)-N-(1-((1-ethyl-azetidin-3-yl)methyl)-1H-pyrazol-4-yl)-1H-indazole-3-carboxamide], the IC50 in experiment [5] is 30 nM; in experiment [6] it was 0.35 nM; in experiment [7], 0.05 nM; in experiment [8], 0.05 nM.

In the case of `C[C@@H](Oc1ccc2[nH]nc(C(=O)Nc3cnn(C4CCC(O)CC4)c3)c2c1)c1c(Cl)cncc1Cl` (stereo partly drawn) [Compound 48, (R)-5-(1-(3,5-dichloropyridin-4-yl)ethoxy)-N-(1-(4-hydroxycyclohexyl)-1H-pyrazol-4-yl)-1H-indazole-3-carboxamide], the IC50 in experiment [5] amounted to 115 nM; in experiment [6], 1 nM; in experiment [7], 0.31 nM; in experiment [8] it was 0.82 nM.

Regarding `C[C@@H](Oc1ccc2[nH]nc(C(=O)Nc3cnn(CC4CCCN(C)C4)c3)c2c1)c1c(Cl)cncc1Cl` (stereo partly drawn) [Compound 44, 5-((R)-1-(3,5-dichloropyridin-4-yl)ethoxy)-N-(1-((1-methylpiperidin-3-yl)methyl)-1H-pyrazol-4-yl)-1H-indazole-3-carboxamide], the IC50 in experiment [5] stood at 145 nM; in experiment [6], 1.1 nM; in experiment [7], 0.39 nM; in experiment [8] it was 0.55 nM.

On to `CC(Oc1ccc2[nH]nc(C(=O)Nc3cnn(C4CCC4)c3)c2c1)c1c(Cl)cncc1Cl` (stereo not shown) [Compound 27, N-(1-cyclobutyl-1H-pyrazol-4-yl)-5-(1-(3,5-dichloropyridin-4-yl)ethoxy)-1H-indazole-3-carboxamide], for which the IC50 in experiment [5] stood at 581 nM; in experiment [6], 20 nM; in experiment [7] it was 2.1 nM; in experiment [8], 7.3 nM.

For the molecule `CCn1cc(NC(=O)c2n[nH]c3ccc(O[C@H](C)c4c(Cl)cncc4Cl)cc23)cn1` [Compound 34, (R)-5-(1-(3,5-dichloropyridin-4-yl)ethoxy)-N-(1-ethyl-1H-pyrazol-4-yl)-1H-indazole-3-carboxamide], the IC50 in experiment [5] is 61 nM; in experiment [6], 0.24 nM; in experiment [7], 0.06 nM; in experiment [8] it was 0.75 nM.

For `CC(Oc1ccc2[nH]nc(C(=O)Nc3ccc(N4CCOCC4)nc3)c2c1)c1c(Cl)cncc1Cl` (stereo not shown) [Compound 4, 5-(1-(3,5-dichloropyridin-4-yl)ethoxy)-N-(6-morpholinopyridin-3-yl)-1H-indazole-3-carboxamide], the 50% inhibitory concentration (IC50) in experiment [1] was determined as 1590 nM; in experiment [2], 95.1 nM; in experiment [3], 9.5 nM.

For `C[C@H](O)Cn1cc(NC(=O)c2n[nH]c3ccc(O[C@H](C)c4c(Cl)cncc4Cl)cc23)cn1` [Compound 32, 5-((R)-1-(3,5-dichloropyridin-4-yl)ethoxy)-N-(1-((S)-2-hydroxypropyl)-1H-pyrazol-4-yl)-1H-indazole-3-carboxamide], the IC50 in experiment [5] came to 86 nM; in experiment [6], 0.3 nM; in experiment [7], 0.37 nM; in experiment [8], 0.26 nM.

In the case of `C[C@@H](Oc1ccc2[nH]nc(C(=O)Nc3cnn(CC4CCN(C)C4)c3)c2c1)c1c(Cl)cncc1Cl` (stereo partly drawn) [Compound 41, 5-((R)-1-(3,5-dichloropyridin-4-yl)ethoxy)-N-(1-((1-methylpyrrolidin-3-yl)methyl)-1H-pyrazol-4-yl)-1H-indazole-3-carboxamide], the IC50 is 84 nM in experiment [5], 0.37 nM in experiment [6], 0.18 nM in experiment [7] and 0.22 nM in experiment [8].

For `CC(Oc1ccc2[nH]nc(C(=O)Nc3cnn(C(C)C)c3)c2c1)c1c(Cl)cncc1Cl` (stereo not shown) [Compound 26, 5-(1-(3,5-dichloropyridin-4-yl)ethoxy)-N-(1-isopropyl-1H-pyrazol-4-yl)-1H-indazole-3-carboxainide], the IC50 in experiment [5] was determined as 255 nM; in experiment [6], 11.4 nM; in experiment [7] it was 1.8 nM; in experiment [8], 2.9 nM.

With `CCC(Oc1ccc2[nH]nc(C(=O)Nc3cnn(C)c3)c2c1)c1c(Cl)cncc1Cl` (stereo not shown) [Compound 46, 5-(1-(3,5-dichloropyridin-4-yl)propoxy)-N-(1-methyl-1H-pyrazol-4-yl)-1H-indazole-3-carboxamide], the 50% inhibitory concentration (IC50) in experiment [5] stood at 184 nM; in experiment [6], 3.4 nM; in experiment [7], 1 nM; in experiment [8], 2.1 nM.

(Values after patent US12630530B2, “FGFR inhibitor compound and use thereof” (HENAN MEDINNO PHARMACEUTICAL TECHNOLOGY CO., LTD., priority 2020, dated 2026).)
